Molecules are shown by their SMILES.

The results in this text go back to patent publication US20240116933A1, “INDAZOLE AND PYRAZOLOPYRIDINE COMPOUNDS AS INHIBITORS OF NLRP3 INFLAMMASOME” (BioAge Labs, Inc., priority 2022, published 2024).

In the assay the target is T1, NLRP3 inflammasome (Homo sapiens, UniProt Q96P20).
T1 construct: endogenous in cells; host or cells: THP-1 cells (PMA-differentiated, LPS-primed, nigericin-stimulated)
T1 sequence (Q96P20 whole entry): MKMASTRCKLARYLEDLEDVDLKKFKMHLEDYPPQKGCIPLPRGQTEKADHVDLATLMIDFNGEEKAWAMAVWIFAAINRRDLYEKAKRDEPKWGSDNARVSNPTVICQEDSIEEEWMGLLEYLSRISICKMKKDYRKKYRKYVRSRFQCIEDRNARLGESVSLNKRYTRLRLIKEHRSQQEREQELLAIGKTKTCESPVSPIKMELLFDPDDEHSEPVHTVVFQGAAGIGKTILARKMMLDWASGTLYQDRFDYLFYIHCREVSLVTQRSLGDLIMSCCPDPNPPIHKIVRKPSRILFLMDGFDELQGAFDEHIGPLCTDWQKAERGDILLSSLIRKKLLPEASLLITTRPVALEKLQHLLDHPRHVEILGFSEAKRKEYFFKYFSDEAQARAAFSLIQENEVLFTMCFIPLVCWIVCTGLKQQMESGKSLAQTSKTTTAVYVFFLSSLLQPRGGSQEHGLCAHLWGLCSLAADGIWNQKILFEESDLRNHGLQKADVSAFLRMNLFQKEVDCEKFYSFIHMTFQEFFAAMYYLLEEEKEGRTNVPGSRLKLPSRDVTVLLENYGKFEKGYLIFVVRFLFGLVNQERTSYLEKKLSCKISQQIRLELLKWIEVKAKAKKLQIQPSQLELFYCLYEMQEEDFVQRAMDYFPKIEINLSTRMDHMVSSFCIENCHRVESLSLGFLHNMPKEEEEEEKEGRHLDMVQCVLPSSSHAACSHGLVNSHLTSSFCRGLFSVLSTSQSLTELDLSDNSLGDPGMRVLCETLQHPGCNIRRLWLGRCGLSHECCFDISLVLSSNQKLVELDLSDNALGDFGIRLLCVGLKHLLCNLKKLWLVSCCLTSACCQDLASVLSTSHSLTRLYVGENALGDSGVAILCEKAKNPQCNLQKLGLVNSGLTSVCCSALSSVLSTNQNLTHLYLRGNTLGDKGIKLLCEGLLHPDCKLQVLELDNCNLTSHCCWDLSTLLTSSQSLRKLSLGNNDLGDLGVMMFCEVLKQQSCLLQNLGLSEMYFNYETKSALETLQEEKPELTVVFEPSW
The assay can be described thus: THP-1 Cell-Based NLRP3 Activation Assay. The note with it: THP-1 cells, PMA, 100 ng/mL LPS 3 hrs, 30 min pre-incubation with test compound, 10 μM nigericin 1 hr. As to the method:
THP-1 cells are cultured in complete media (CM) until they reach logarithmic growth and achieve a viability >90%. CM is composed of RPMI-1640 (+Glutamax)/10% fetal bovine serum/55 μM β-mercaptoethanol/pen/strep. Cells are spun down and resuspended to 1,000,000 cells/mL in CM containing either 20 nM or 500 nM PMA. 150,000 cells […] are then added to each well of a 96-well TC plate and incubated for either 24 hr or 3 hr, respectively, in a standard cell culture incubator (37° C.; 5% CO2). After this incubation, the plate is tilted and media carefully removed. 200 μL of CM containing 100 ng/mL LPS is then added to the wells and the cells incubated an additional 3 hrs. The media is again removed and replaced with Opti-Mem medium containing pre-determined dilutions of test compounds in replicate wells. After a 30 min pre-incubation with test compound, 10 μM nigericin (final concentration) in Opti-Mem medium with the corresponding concentration of compound is added to the wells for an additional 1 hr. Positive control wells contain 10 μM nigericin in Opti-Mem in the absence of test compound, while negative control wells contain Opti-Mem only. […] Once supernatants are removed, the relative viability of adherent cells in the 96-well TC plate are determined using a CellTiter-Glo® luminescent cell viability assay (Promega).
As for `Cc1ncc(CN(C)C(=O)c2cc(F)c(-c3cccc(C#N)c3)c(OC3CC3)c2)c2[nH]ncc12` [Compound 065], the IC50 (usually the concentration that gives 50% inhibition) is below 1 µM.

As to `CC(C)Oc1cc(C(=O)N(C)Cc2cnc(C(C)O)c3cn[nH]c23)ccc1-c1cccc(Cl)c1` (stereo not shown) [Compound 141], the concentration for half-maximal inhibition (IC50) was below 1 µM. With `CCOc1cc(C(=O)N(C)Cc2cnc(C(C)O)c3cn[nH]c23)cc(F)c1-c1cc(F)cs1` (stereo not shown) [Compound 081] the figure was below 1 µM; with `CCOc1nc(C(=O)N(C)[C@H](C)c2ccc(CF)c3cn[nH]c23)ccc1-c1cccc(F)c1` [Compound 075], below 50 µM; with `CN(Cc1cnc(CF)c2cn[nH]c12)C(=O)c1cc(F)c(-c2cccs2)c(OC2CC2)c1` [Compound 105], below 1 µM. With `CN(Cc1cnc(CO)c2cn[nH]c12)C(=O)c1ccc(-c2cccs2)c(OC2CC2)c1` [Compound 085] the figure was below 10 µM; with `CCOc1cc(C(=O)N(C)[C@H](C)c2ccc(CF)c3cn[nH]c23)ccc1-c1cccc(F)c1` (single isomer, unassigned) [Compound 169], below 10 µM. On to `CCOc1cc(C(=O)N(C)Cc2cc(OC(C)=O)cc3cn[nH]c23)ccc1-c1cccc(F)c1` [Compound 007], for which the concentration for half-maximal inhibition (IC50) was below 1 µM. With `CCOc1cc(C(=O)N(C)C(C)c2ccc(F)c3cn[nH]c23)ccc1-c1cccc(F)c1` (stereo not shown) [Compound 116] the figure was below 1 µM; with `CCOc1cc(C(=O)N(C)Cc2cc(CO)cc3cn[nH]c23)ccc1-c1cccc(F)c1` [Compound 069], below 1 µM.

For the molecule `CCOc1cc(C(=O)N(C)Cc2ccc(CO)c3cn[nH]c23)ccc1-c1cccc(F)c1` [Compound 066], the IC50 is below 1 µM.

`CCOc1cc(C(=O)N(C)Cc2c(C(C)O)ncc3cn[nH]c23)ccc1-c1cccc(F)c1` (stereo not shown) [Compound 135] came in with an IC50 below 1 µM. In the case of `CCOc1cc(C(=O)NCc2cnc(CO)c3cn[nH]c23)ccc1-c1cccc(F)c1` [Compound 150] it was below 1 µM; in that of `CCOc1nc(C(=O)N(C)Cc2cc(O)cc3cn[nH]c23)ccc1-c1cccc(F)c1` [Compound 128], below 10 µM; in that of `CCOc1cc(C(=O)N(C)Cc2cnc(C(C)F)c3cn[nH]c23)ccc1-c1cccc(F)c1` (stereo not shown) [Compound 070], below 1 µM. In the case of `CCOc1cc(C(=O)N(CC)Cc2cnc(C(C)O)c3cn[nH]c23)ccc1-c1cccc(F)c1` (stereo not shown) [Compound 067] it was below 1 µM; in that of `CCOc1cc(C(=O)N(CC)Cc2cnc(C(C)O)c3cn[nH]c23)cc(F)c1-c1cccc(F)c1` (stereo not shown) [Compound 174], below 1 µM. Molecule `CCOc1cc(C(=O)N(C)Cc2cc(O)cc3cn[nH]c23)cc(F)c1-c1cccc(F)c1` [Compound 098] returned an IC50 below 1 µM.

`CCOc1cc(C(=O)N(C)Cc2cnc(C(C)O)c3cn[nH]c23)cc(F)c1-c1ccsc1` (stereo not shown) [Compound 088]: the half-maximal inhibitory concentration (IC50) is below 1 µM. With `CCOc1cc(C(=O)N(C)Cc2cnc(C(C)O)c3cn[nH]c23)ccc1-c1cccc(Cl)c1` (stereo not shown) [Compound 030] the figure was below 1 µM; with `CCOc1cc(C(=O)N(C)Cc2cccc3cn[nH]c23)sc1-c1cccc(F)c1` [Compound 121], below 1 µM; with `CCOc1cc(C(=O)N(C)Cc2cnc(CO)c3cn[nH]c23)cc(F)c1-c1ccsc1` [Compound 107], below 1 µM. In the case of `CCOc1cc(C(=O)N(C)Cc2cnc(C)c3cn[nH]c23)ccc1-c1cccs1` [Compound 170] it was below 1 µM. In the case of `CN(Cc1cc(O)cc2cn[nH]c12)C(=O)c1cc(F)c(-c2ccccc2)c(OC2CC2)c1` [Compound 114] it was below 1 µM; in that of `CCOc1cc(C(=O)N(C)Cc2cnc(CO)c3cn[nH]c23)ccc1-c1nc(Cl)cs1` [Compound 157], below 1 µM; in that of `CCOc1cc(C(=O)N(C)Cc2cnc(C(C)O)c3cn[nH]c23)cc(F)c1-c1cc(F)cc(C#N)c1` (stereo not shown) [Compound 076], below 1 µM. In turn, `CN(Cc1cnc(CO)c2cn[nH]c12)C(=O)c1cc(Cl)c(-c2cccc(Cl)c2)c(OC2CC2)c1` [Compound 161] came in with an IC50 below 1 µM. In the case of `CN(Cc1cnc(CO)c2cn[nH]c12)C(=O)c1ccc(-c2cc(F)cc(Cl)c2)c(OC2COC2)c1` [Compound 152], the IC50 was below 1 µM. In turn, `CCN(Cc1cnc(CO)c2cn[nH]c12)C(=O)c1ccc(-c2cccc(F)c2)c(OC2CC2)c1` [Compound 100] showed a 50% inhibitory concentration (IC50) below 1 µM. With `CCOc1cc(C(=O)N(C)[C@@H](C)c2cccc3cn[nH]c23)ccc1-c1cccc(F)c1` [Compound 059] the figure was below 1 µM; with `CCC(c1cncc2cn[nH]c12)N(C)C(=O)c1ccc(-c2cccc(F)c2)c(OC2CC2)c1` (stereo not shown) [Compound 109], below 1 µM; with `CC(C)Oc1cc(C(=O)N(C)Cc2cnc(CO)c3cn[nH]c23)ccc1-c1cc(F)cc(F)c1` [Compound 142], below 1 µM. In turn, `CCOc1cc(C(=O)N(C)Cc2c(C)nc(CF)c3cn[nH]c23)ccc1-c1cccc(F)c1` [Compound 173] gave a half-maximal inhibitory concentration (IC50) below 1 µM. For `CCOc1cc(C(=O)N(C)Cc2cnc(C(C)O)c3cn[nH]c23)ccc1-c1cccc(C#N)c1` (stereo not shown) [Compound 029], the half-inhibitory concentration (IC50) was below 1 µM. In the case of `CC(C)Oc1cc(C(=O)N(C)Cc2cnc(C(C)O)c3cn[nH]c23)ccc1-c1cc(F)cc(F)c1` (stereo not shown) [Compound 146] it was below 1 µM. `CCOc1cc(C(=O)N(C)Cc2c(CO)ncc3cn[nH]c23)ccc1-c1cccc(F)c1` [Compound 039] registered a half-inhibitory concentration (IC50) below 1 µM. In the case of `CCOc1cc(C(=O)N(C)Cc2cnc(C(C)O)c3cn[nH]c23)cc(Cl)c1-c1cccc(F)c1` (stereo not shown) [Compound 156] it was below 50 µM; in that of `CCN(Cc1cnc(CO)c2cn[nH]c12)C(=O)c1cc(F)c(-c2cccc(F)c2)c(OC2CC2)c1` [Compound 180], below 1 µM. With `CN(Cc1cc(O)cc2cn[nH]c12)C(=O)c1cc(F)c(-c2cccc(Cl)c2)c(OC2CC2)c1` [Compound 113], the 50% inhibitory concentration (IC50) is below 1 µM. In the case of `CCOc1cc(C(=O)N(C)[C@H](C)c2cnc(CO)c3cn[nH]c23)ccc1-c1cccc(F)c1` [Compound 159] it was below 1 µM; in that of `CCOc1cc(C(=O)N(C)Cc2c(O)ccc3cn[nH]c23)ccc1-c1cccc(F)c1` [Compound 036], below 1 µM.

Consider `CCOc1cc(C(=O)N(C)Cc2cc(O)cc3cn[nH]c23)cc(F)c1-c1ccccc1` [Compound 112], for which the concentration for half-maximal inhibition (IC50) is below 1 µM. Consider `CCOc1nc(C(=O)N(C)Cc2cnc(CF)c3cn[nH]c23)ccc1-c1cccc(C(F)(F)F)c1` [Compound 046], for which the IC50 was below 1 µM. In the case of `CCOc1cc(C(=O)N(C)Cc2cnc(C(C)O)c3cn[nH]c23)ccc1-c1nccs1` (stereo not shown) [Compound 149] it was below 10 µM; in that of `CCOc1nc(C(=O)N(C)[C@@H](C)c2cnc(C)c3cn[nH]c23)ccc1-c1cccc(F)c1` [Compound 123], below 1 µM; in that of `Cc1nc(C)c2cn[nH]c2c1CN(C)C(=O)c1cc(F)c(-c2cccc(F)c2)c(OC2CC2)c1` [Compound 119], below 1 µM. With `CC(C)Oc1cc(C(=O)N(C)Cc2cnc(CO)c3cn[nH]c23)ccc1-c1cccc(F)c1` [Compound 134] the figure was below 1 µM.

In the case of `CCOc1cc(C(=O)N(C)Cc2cnc(CO)c3cn[nH]c23)cc(F)c1-c1cc(F)cc(F)c1` [Compound 131], the IC50 was below 1 µM. Molecule `CCOc1cc(C(=O)N(C)Cc2c(C)nc(CO)c3cn[nH]c23)ccc1-c1cccc(F)c1` [Compound 037] yielded a half-maximal inhibitory concentration (IC50) below 1 µM. With `CN(Cc1cnc(CO)c2cn[nH]c12)C(=O)c1ccc(-c2cccc(F)c2)c(OC2CCC2)c1` [Compound 137] the figure was below 1 µM; with `CCOc1cc(C(=O)N(C)Cc2c(C)c(OC)cc3cn[nH]c23)ccc1-c1cccc(F)c1` [Compound 167], below 1 µM. In the case of `Cc1ncc([C@@H](C)N(C)C(=O)c2cc(F)c(-c3cccc(F)c3)c(OC3CC3)c2)c2[nH]ncc12` [Compound 034] it was below 10 µM. For the molecule `CCOc1cc(C(=O)N(C)Cc2cnc(C(C)O)c3cn[nH]c23)ccc1-c1ccc(Cl)s1` (stereo not shown) [Compound 163], the IC50 is below 1 µM. For `CN(Cc1cnc(CF)c2cn[nH]c12)C(=O)c1cc(F)c(-c2cccc(Cl)c2)c(OC2CC2)c1` [Compound 071], the IC50 is below 1 µM. Molecule `CCOc1cc(C(=O)N(C)Cc2cccc3[nH]ncc23)ccc1-c1cccc(C#N)c1` [Compound 126] displayed a half-inhibitory concentration (IC50) below 1 µM. In the case of `CCOc1cc(C(=O)N(C)Cc2cnc(C(C)O)c3cn[nH]c23)ccc1-c1ccccc1` (stereo not shown) [Compound 031], the half-inhibitory concentration (IC50) was below 1 µM. With `Cc1ncc(CN(C)C(=O)c2cc(F)c(-c3cccc(Cl)c3)c(OC3CC3)c2)c2[nH]ncc12` [Compound 048] the figure was below 1 µM; with `CCOc1cc(C(=O)N(C)C(CC)c2cncc3cn[nH]c23)ccc1-c1cccc(F)c1` (stereo not shown) [Compound 117], below 1 µM; with `CN(Cc1cnc(CO)c2cn[nH]c12)C(=O)c1cc(F)c(-c2cccc(Cl)c2)c(OC2CC2)c1` [Compound 047], below 1 µM.

As to `CCOc1cc(C(=O)N(C)[C@H](C)c2c(O)ccc3cn[nH]c23)ccc1-c1cccc(F)c1` (single isomer, unassigned) [Compound 184], the IC50 was below 10 µM.

The molecule `CCOc1cc(C(=O)N(CC)Cc2cnc(C(C)O)c3cn[nH]c23)cc(F)c1-c1cccc(Cl)c1` (stereo not shown) [Compound 172] returned an IC50 below 1 µM.
